Activity calls are given as the source filed them. The rule behind the calls is not given here.
Assays:
Exportin-1 [1] = biological target: T1, Exportin-1 (Homo sapiens, UniProt O14980); test: Binding affinity to recombinant His-tagged CRM1 (unknown origin) by SPR analysis
[2] = Cytotoxicity activity against human SNK6 cells assessed as GSH:GSSG ratio at 1 uM incubated for 48 hrs by GSH and GSSG assay kit method; type: cell-based
Exportin-1 [3] = biological target: T1, Exportin-1; test: Reversible inhibition of CRM1 in human 293T cells assessed as increase in translocation of NES-GFP to […] at 4 uM incubated for 2 hrs by confocal laser scanning microscopy; type: cell-based
HCT-15 = test: Antiproliferative activity against CRM1 siRNA […] human HCT15 cells assessed as reduction in cell viability incubated for 24 hrs; type: functional, cell-based; conditions: HCT-15, 24 h
Homo sapiens = organism: Homo sapiens; test: Binding affinity to recombinant His-tagged IkBalpha (unknown origin) by SPR analysis
[4] = biological target: Kelch-like ECH-associated protein 1 (Homo sapiens) (UniProt Q14145); test: Binding affinity to recombinant His-tagged Keap1 (unknown origin) by SPR analysis
Kelch-like ECH-associated protein 1 (Homo sapiens), sequence (Q14145 whole entry): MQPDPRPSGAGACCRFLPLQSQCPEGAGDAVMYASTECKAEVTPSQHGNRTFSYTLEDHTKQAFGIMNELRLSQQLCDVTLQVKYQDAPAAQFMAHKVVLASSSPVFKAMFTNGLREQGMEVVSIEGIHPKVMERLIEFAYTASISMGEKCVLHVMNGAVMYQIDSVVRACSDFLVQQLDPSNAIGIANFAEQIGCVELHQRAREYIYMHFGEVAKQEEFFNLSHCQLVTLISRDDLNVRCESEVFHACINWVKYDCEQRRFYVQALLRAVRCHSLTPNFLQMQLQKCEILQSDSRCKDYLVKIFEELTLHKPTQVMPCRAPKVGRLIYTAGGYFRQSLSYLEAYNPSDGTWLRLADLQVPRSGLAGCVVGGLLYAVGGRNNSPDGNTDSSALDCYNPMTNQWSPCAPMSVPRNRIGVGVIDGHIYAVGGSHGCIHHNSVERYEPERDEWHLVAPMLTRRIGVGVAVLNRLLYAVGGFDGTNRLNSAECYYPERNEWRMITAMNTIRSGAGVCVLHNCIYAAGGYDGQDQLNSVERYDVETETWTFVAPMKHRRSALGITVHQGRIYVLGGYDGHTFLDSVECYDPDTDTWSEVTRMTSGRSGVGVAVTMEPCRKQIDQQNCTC

Mus musculus [5] = test: Anti-inflammatory activity against DSS-induced ulcerative colitis C57BL/6J mouse model assessed as reduction in body weight loss at 3 and 30 mg/kg, po administered for 7 days and measured daily; type: functional, organism-based
Mus musculus [6] = test: Anti-inflammatory activity against DSS-induced ulcerative colitis C57BL/6J mouse model assessed as reduction in colon shortening at 3 and 30 mg/kg, po administered for 7 days and measured daily; type: functional, organism-based
Mus musculus [7] = test: Anti-inflammatory activity against DSS-induced ulcerative colitis C57BL/6J mouse model assessed as reduction in diarrhea at 3 and 30 mg/kg, po administered for 7 days and measured daily; type: functional, organism-based
Mus musculus [8] = test: Anti-inflammatory activity against DSS-induced ulcerative colitis C57BL/6J mouse model assessed as preservation of colon mucosal architecture at 3 and 30 mg/kg, po administered for 7 days and measured on day 7 by […] and eosin staining based microscopic analysis; type: functional, organism-based
Mus musculus [9] = test: Anti-inflammatory activity against DSS-induced ulcerative colitis C57BL/6J mouse model assessed as reduction in colon swelling at 3 and 30 mg/kg, po administered for 7 days and measured on day 7 by […] and eosin staining based microscopic analysis; type: functional, organism-based
Mus musculus [10] = test: Anti-inflammatory activity against DSS-induced ulcerative colitis C57BL/6J mouse model assessed as reduction in colon inflammation at 3 and 30 mg/kg, po administered for 7 days and measured on day 7 by […] and eosin staining based microscopic analysis; type: functional, organism-based
Mus musculus [11] = test: Anti-inflammatory activity against DSS-induced ulcerative colitis C57BL/6J mouse model assessed as reduction in colon ulceration at 3 and 30 mg/kg, po administered for 7 days and measured on day 7 by […] and eosin staining based microscopic analysis; type: functional, organism-based
Mus musculus [12] = test: Anti-inflammatory activity against DSS-induced ulcerative colitis C57BL/6J mouse model assessed as reduction in colitis orally administered for 7 days and measured on day 7 by […] and eosin staining based microscopic analysis; type: functional, organism-based
Mus musculus [13] = test: Anti-inflammatory activity against DSS-induced ulcerative colitis C57BL/6J mouse model assessed as re-epithelialization of colon at 3 and 30 mg/kg, po administered for 7 days and measured on day 7 by […] and eosin staining based microscopic analysis; type: functional, organism-based
Mus musculus [14] = test: Anti-inflammatory activity against DSS-induced ulcerative colitis C57BL/6J mouse model assessed as reduction in body weight loss at 10 mg/kg, po administered for 7 days and measured daily; type: functional, organism-based
Mus musculus [15] = test: Anti-inflammatory activity against DSS-induced ulcerative colitis C57BL/6J mouse model assessed as reduction in diarrhea at 10 mg/kg, po administered for 7 days and measured daily; type: functional, organism-based
Mus musculus [16] = test: Anti-inflammatory activity against DSS-induced ulcerative colitis C57BL/6J mouse model assessed as restoration of colon length at 10 mg/kg, po administered for 7 days and measured on day 7; type: functional, organism-based
Mus musculus [17] = test: Anti-inflammatory activity against DSS-induced ulcerative colitis C57BL/6J mouse model assessed as reduction in colon swelling at 10 mg/kg, po administered for 7 days and measured on day 7; type: functional, organism-based
Mus musculus [18] = test: Anti-inflammatory activity against DSS-induced ulcerative colitis C57BL/6J mouse model assessed as reduction in colon inflammation at 10 mg/kg, po administered for 7 days and measured on day 7; type: functional, organism-based
Mus musculus [19] = test: Anti-inflammatory activity against DSS-induced ulcerative colitis C57BL/6J mouse model assessed as reduction in colon ulceration at 10 mg/kg, po administered for 7 days and measured on day 7; type: functional, organism-based
Mus musculus [20] = test: Anti-inflammatory activity against DSS-induced ulcerative colitis C57BL/6J mouse model assessed as reduction in TNFalpha production at 10 mg/kg, po administered for 7 days and measured on day 7 by ELISA; type: functional, organism-based
Mus musculus [21] = test: Anti-inflammatory activity against DSS-induced ulcerative colitis C57BL/6J mouse model assessed as reduction in IL-1beta production at 10 mg/kg, po administered for 7 days and measured on day 7 by ELISA; type: functional, organism-based
Mus musculus [22] = test: Anti-inflammatory activity against DSS-induced ulcerative colitis C57BL/6J mouse model assessed as reduction in IL-6 production at 10 mg/kg, po administered for 7 days and measured on day 7 by ELISA; type: functional, organism-based
Mus musculus [23] = test: Anti-inflammatory activity against DSS-induced ulcerative colitis C57BL/6J mouse model assessed as reduction in IL-23 production at 10 mg/kg, po administered for 7 days and measured on day 7 by ELISA; type: functional, organism-based
Mus musculus [24] = test: Anti-inflammatory activity against DSS-induced ulcerative colitis C57BL/6J mouse model assessed as restoration of damaged colon mucosal layer at 10 mg/kg, po administered for 7 days and measured on day 7 by ELISA; type: functional, organism-based
Mus musculus [25] = test: Anti-inflammatory activity against DSS-induced ulcerative colitis C57BL/6J mouse model assessed as reduction in impairment of epithelial barrier genes at 30 mg/kg, po administered for 7 days and measured on day 7 by proteomic analysis; type: functional, organism-based
Mus musculus [26] = test: Anti-inflammatory activity against DSS-induced ulcerative colitis C57BL/6J mouse model assessed as reduction in impairment of wound healing genes at 30 mg/kg, po administered for 7 days and measured on day 7 by proteomic analysis; type: functional, organism-based
Mus musculus [27] = test: Anti-inflammatory activity against DSS-induced ulcerative colitis C57BL/6J mouse model assessed as reduction in impairment of immune response genes at 30 mg/kg, po administered for 7 days and measured on day 7 by proteomic analysis; type: functional, organism-based
Mus musculus [28] = test: Anti-inflammatory activity against DSS-induced ulcerative colitis C57BL/6J mouse model assessed as reduction in impairment of inflammatory response genes at 30 mg/kg, po administered for 7 days and measured on day 7 by proteomic analysis; type: functional, organism-based
Mus musculus [29] = test: Anti-inflammatory activity against DSS-induced ulcerative colitis C57BL/6J mouse model assessed as reduction in impairment of host defense genes at 30 mg/kg, po administered for 7 days and measured on day 7 by proteomic analysis; type: functional, organism-based
Mus musculus [30] = test: Anti-inflammatory activity against DSS-induced ulcerative colitis C57BL/6J mouse model assessed as reduction in impairment of T-cell receptor signalling genes at 30 mg/kg, po administered for 7 days and measured on day 7 by proteomic analysis; type: functional, organism-based
Mus musculus [31] = test: Anti-inflammatory activity against DSS-induced ulcerative colitis C57BL/6J mouse model assessed as reduction in impairment of cell-cell adhesion genes at 30 mg/kg, po administered for 7 days and measured on day 7 by proteomic analysis; type: functional, organism-based
Mus musculus [32] = test: Anti-inflammatory activity against DSS-induced ulcerative colitis C57BL/6J mouse model assessed as reduction in impairment of NF-kappaB signalling genes at 30 mg/kg, po administered for 7 days and measured on day 7 by proteomic analysis; type: functional, organism-based
Mus musculus [33] = test: In vivo inhibition of NFkappaB in C57BL/6J mouse DSS-induced ulcerative colitis model assessed as increase in accumulation of IkBalpha in nucleus at 400 nM, po by confocal microscopy; type: functional, organism-based
Mus musculus [34] = test: In vivo inhibition of NFkappaB in C57BL/6J mouse DSS-induced ulcerative colitis model assessed as increase in accumulation of NRF2 in nucleus at 400 nM, po by confocal microscopy; type: functional, organism-based
Mus musculus [35] = test: In vivo inhibition of NFkappaB in C57BL/6J mouse DSS-induced ulcerative colitis model assessed as reduction in NFkappaB p65 expression at 10 and 30 mg/kg, po administered for 7 days and measured on day 7 by Western blot analysis; type: functional, organism-based
Mus musculus [36] = test: Anti-inflammatory activity against DSS-induced ulcerative colitis C57BL/6J mouse model assessed as reduction in COX-2 production at 10 mg/kg, po administered for 7 days and measured on day 7 by ELISA; type: functional, organism-based
Mus musculus [37] = test: In vivo inhibition of NFkappaB in C57BL/6J mouse DSS-induced ulcerative colitis model assessed as reduction in NQO1 expression at 10 and 30 mg/kg, po administered for 7 days and measured on day 7 by Western blot analysis; type: functional, organism-based
Mus musculus [38] = test: In vivo inhibition of NFkappaB in C57BL/6J mouse DSS-induced ulcerative colitis model assessed as increase in Nrf2 expression at 10 and 30 mg/kg, po administered for 7 days and measured on day 7 by Western blot analysis; type: functional, organism-based
Mus musculus [39] = test: In vivo inhibition of NFkappaB in C57BL/6J mouse DSS-induced ulcerative colitis model assessed as increase in HO1 expression at 10 and 30 mg/kg, po administered for 7 days and measured on day 7 by Western blot analysis; type: functional, organism-based
Mus musculus [40] = test: In vivo inhibition of NFkappaB in C57BL/6J mouse DSS-induced ulcerative colitis model assessed as downregulation of MRP8 expression at 10 and 30 mg/kg, po administered for 7 days and measured on day 7 by Western blot analysis; type: functional, organism-based
Mus musculus [41] = test: In vivo inhibition of NFkappaB in C57BL/6J mouse DSS-induced ulcerative colitis model assessed as downregulation of MRP14 expression at 10 and 30 mg/kg, po administered for 7 days and measured on day 7 by Western blot analysis; type: functional, organism-based
Mus musculus [42] = test: In vivo inhibition of NFkappaB in C57BL/6J mouse DSS-induced ulcerative colitis model assessed as restoration of occludin expression at 10 and 30 mg/kg, po administered for 7 days and measured on day 7 by Western blot analysis; type: functional, organism-based
[43] = Stability of compound in artificial intestinal juice assessed as half life; type: ADME
[44] = Permeability in human Caco2 cells at 10 uM incubated for 4 hrs by LC-MS/MS analysis; type: ADME, cell-based; conditions: caco-2, 4 h
[45] = Stability of compound in artificial gastric juice assessed as half life; type: ADME
[46] = Acute toxicity in C57BL/6 mouse assessed as lethargy at 300 to 600 mg/kg, po administered for 7 days and measured on day 7; type: organism-based; conditions: in vivo, 168 h
[47] = Acute toxicity in C57BL/6 mouse assessed as weight loss at 300 to 600 mg/kg, po administered for 7 days and measured on day 7; type: organism-based; conditions: in vivo, 168 h
[48] = Acute toxicity in C57BL/6 mouse assessed as sickness indication at 300 to 600 mg/kg, po administered for 7 days and measured on day 7; type: organism-based; conditions: in vivo, 168 h
[49] = Toxicity in C57BL/6 mouse assessed as effect on colon at 300 to 600 mg/kg, po administered for 7 days and measured on day 14; type: organism-based; conditions: in vivo, 168 h
[50] = Toxicity in C57BL/6 mouse assessed as effect on spleen at 300 to 600 mg/kg, po administered for 7 days and measured on day 14; type: organism-based; conditions: in vivo, 168 h
[51] = biological target: Voltage-gated inwardly rectifying potassium channel KCNH2 (Homo sapiens, UniProt Q12809); test: Inhibition of human ERG expressed in human HEK293 cells by whole cell patch clamp assay; type: cell-based
Voltage-gated inwardly rectifying potassium channel KCNH2, sequence (Q12809 whole entry): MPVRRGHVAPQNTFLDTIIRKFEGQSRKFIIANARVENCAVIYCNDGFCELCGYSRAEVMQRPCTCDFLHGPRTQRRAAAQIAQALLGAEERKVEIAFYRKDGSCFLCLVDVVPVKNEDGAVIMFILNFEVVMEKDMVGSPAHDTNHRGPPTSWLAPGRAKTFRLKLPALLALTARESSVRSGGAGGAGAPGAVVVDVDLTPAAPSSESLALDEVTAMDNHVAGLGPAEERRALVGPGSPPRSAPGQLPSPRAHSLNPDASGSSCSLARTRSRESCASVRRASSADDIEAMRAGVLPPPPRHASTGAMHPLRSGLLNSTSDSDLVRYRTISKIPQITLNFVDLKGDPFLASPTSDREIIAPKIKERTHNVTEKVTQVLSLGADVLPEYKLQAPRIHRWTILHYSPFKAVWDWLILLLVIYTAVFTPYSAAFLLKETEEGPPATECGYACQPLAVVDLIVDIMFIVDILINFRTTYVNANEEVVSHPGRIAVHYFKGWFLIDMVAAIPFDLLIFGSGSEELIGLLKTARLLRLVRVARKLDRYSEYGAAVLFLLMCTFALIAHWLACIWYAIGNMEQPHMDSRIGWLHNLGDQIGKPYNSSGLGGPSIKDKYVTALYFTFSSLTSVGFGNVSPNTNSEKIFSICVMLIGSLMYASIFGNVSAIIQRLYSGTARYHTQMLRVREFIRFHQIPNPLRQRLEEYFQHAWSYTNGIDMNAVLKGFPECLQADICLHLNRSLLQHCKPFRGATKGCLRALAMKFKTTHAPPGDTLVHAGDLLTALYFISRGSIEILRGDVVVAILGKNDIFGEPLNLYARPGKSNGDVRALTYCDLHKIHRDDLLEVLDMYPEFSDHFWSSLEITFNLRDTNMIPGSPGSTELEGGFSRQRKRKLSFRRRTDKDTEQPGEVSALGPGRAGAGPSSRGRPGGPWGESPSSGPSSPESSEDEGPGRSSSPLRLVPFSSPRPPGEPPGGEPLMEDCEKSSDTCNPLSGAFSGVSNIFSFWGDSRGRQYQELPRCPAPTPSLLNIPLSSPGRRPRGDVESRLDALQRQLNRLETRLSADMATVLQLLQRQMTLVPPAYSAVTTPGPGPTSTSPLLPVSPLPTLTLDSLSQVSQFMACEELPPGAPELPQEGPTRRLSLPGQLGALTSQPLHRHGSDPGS

T1 sequence (O14980 whole entry): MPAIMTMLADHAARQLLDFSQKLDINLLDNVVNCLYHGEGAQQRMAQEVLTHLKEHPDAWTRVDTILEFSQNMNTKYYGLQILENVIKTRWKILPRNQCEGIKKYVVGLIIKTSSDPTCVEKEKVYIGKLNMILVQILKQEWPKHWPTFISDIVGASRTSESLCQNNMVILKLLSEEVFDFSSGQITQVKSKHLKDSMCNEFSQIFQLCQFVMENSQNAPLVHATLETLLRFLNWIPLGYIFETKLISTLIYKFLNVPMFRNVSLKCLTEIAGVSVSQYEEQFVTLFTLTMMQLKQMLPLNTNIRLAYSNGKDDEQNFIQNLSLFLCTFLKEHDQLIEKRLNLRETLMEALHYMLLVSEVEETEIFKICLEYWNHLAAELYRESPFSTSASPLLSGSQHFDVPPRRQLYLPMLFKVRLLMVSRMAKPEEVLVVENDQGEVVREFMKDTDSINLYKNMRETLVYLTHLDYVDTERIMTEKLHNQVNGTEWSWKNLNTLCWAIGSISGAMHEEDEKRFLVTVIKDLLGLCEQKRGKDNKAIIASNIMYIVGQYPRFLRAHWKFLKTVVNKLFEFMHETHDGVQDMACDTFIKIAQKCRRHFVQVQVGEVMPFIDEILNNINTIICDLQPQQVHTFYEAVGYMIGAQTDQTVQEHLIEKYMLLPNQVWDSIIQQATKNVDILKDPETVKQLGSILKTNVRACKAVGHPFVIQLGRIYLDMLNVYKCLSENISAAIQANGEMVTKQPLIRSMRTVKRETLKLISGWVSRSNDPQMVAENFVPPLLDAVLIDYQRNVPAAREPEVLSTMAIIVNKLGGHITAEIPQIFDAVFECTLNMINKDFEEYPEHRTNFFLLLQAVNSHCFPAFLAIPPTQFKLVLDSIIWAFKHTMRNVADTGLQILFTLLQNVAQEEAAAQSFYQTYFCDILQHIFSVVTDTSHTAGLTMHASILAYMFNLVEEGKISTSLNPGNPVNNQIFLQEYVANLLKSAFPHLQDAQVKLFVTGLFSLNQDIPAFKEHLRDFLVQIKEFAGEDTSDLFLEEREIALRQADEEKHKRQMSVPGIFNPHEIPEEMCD

Structure (SMILES): [O-][S@@+](/C=C/CCN=C=S)c1cc(C(F)(F)F)cc(C(F)(F)F)c1
- Kd (Exportin-1 [1]): 0.0269 µM
- Activity [2]: Non-Toxic
- inhibition (Exportin-1 [3]): 100%
- IC50 (HCT-15): 14.7 µM
- Activity (Homo sapiens): inactive
- Activity [4]: inactive
- Activity (Mus musculus [5]): Active
- Activity (Mus musculus [6]): Active
- Activity (Mus musculus [7]): Active
- Activity (Mus musculus [8]): Active
- Activity (Mus musculus [9]): Active
- Activity (Mus musculus [10]): Active
- Activity (Mus musculus [11]): Active
- Activity (Mus musculus [12]): Dose-dependent effect
- Activity (Mus musculus [13]): Active
- Activity (Mus musculus [14]): Active
- Activity (Mus musculus [15]): Active
- Activity (Mus musculus [16]): Active
- Activity (Mus musculus [17]): Active
- Activity (Mus musculus [18]): Active
- Activity (Mus musculus [19]): Active
- Activity (Mus musculus [20]): Active
- Activity (Mus musculus [21]): Active
- Activity (Mus musculus [22]): Active
- Activity (Mus musculus [23]): Active
- Activity (Mus musculus [24]): Active
- Activity (Mus musculus [25]): Active
- Activity (Mus musculus [26]): Active
- Activity (Mus musculus [27]): Active
- Activity (Mus musculus [28]): Active
- Activity (Mus musculus [29]): Active
- Activity (Mus musculus [30]): Active
- Activity (Mus musculus [31]): Active
- Activity (Mus musculus [32]): Active
- inhibition (Mus musculus [33]): Active
- inhibition (Mus musculus [34]): Active
- inhibition (Mus musculus [35]): Active
- Activity (Mus musculus [36]): Active
- inhibition (Mus musculus [37]): Active
- inhibition (Mus musculus [38]): Active
- inhibition (Mus musculus [39]): Active
- inhibition (Mus musculus [40]): Active
- inhibition (Mus musculus [41]): Active
- inhibition (Mus musculus [42]): Active
- half-life [43]: 8 h
- permeability [44]: Permeable
- half-life [45]: 24 h
- Activity [46]: Non-Toxic
- Activity [47]: Non-Toxic
- Activity [48]: Non-Toxic
- Activity [49]: Non-Toxic
- Activity [50]: Non-Toxic
- IC50 [51]: > 30 µM

Source: ChEMBL document CHEMBL4402590, “Small-Molecule Antagonist Targeting Exportin-1 via Rational Structure-Based Discovery” (J Med Chem, 2020)
